# Source: patent US9340590B2 (priority 2011, dated 2016)
# Like-named read-outs stand apart in the source and are kept apart here. Positions of bridges follow the written chain, without caps; N, C: chain ends. Non-standard residues stand in square brackets, D forms with d. Residues, ends and D or L forms follow the SMILES beside them. Abu = CC[C@H](N)C(=O)O
# What was measured:
# [1] = biological target: T1, hNav1.3 (Homo sapiens, UniProt Q9NY46); assay: cell-based; type: cell-based
# [2] = biological target: hNav1.4 (Homo sapiens, UniProt P35499); assay: cell-based; details: read-out: Nav1.4 Use IC50
# [3] = biological target: T2, hNav1.5 (Homo sapiens, UniProt Q14524); assay: cell-based; details: read-out: Nav1.5 Use IC50
# [4] = biological target: T3, hNav1.7 (Homo sapiens, UniProt Q15858); type: cell-based
# T3 sequence (Q15858 whole entry, looked up): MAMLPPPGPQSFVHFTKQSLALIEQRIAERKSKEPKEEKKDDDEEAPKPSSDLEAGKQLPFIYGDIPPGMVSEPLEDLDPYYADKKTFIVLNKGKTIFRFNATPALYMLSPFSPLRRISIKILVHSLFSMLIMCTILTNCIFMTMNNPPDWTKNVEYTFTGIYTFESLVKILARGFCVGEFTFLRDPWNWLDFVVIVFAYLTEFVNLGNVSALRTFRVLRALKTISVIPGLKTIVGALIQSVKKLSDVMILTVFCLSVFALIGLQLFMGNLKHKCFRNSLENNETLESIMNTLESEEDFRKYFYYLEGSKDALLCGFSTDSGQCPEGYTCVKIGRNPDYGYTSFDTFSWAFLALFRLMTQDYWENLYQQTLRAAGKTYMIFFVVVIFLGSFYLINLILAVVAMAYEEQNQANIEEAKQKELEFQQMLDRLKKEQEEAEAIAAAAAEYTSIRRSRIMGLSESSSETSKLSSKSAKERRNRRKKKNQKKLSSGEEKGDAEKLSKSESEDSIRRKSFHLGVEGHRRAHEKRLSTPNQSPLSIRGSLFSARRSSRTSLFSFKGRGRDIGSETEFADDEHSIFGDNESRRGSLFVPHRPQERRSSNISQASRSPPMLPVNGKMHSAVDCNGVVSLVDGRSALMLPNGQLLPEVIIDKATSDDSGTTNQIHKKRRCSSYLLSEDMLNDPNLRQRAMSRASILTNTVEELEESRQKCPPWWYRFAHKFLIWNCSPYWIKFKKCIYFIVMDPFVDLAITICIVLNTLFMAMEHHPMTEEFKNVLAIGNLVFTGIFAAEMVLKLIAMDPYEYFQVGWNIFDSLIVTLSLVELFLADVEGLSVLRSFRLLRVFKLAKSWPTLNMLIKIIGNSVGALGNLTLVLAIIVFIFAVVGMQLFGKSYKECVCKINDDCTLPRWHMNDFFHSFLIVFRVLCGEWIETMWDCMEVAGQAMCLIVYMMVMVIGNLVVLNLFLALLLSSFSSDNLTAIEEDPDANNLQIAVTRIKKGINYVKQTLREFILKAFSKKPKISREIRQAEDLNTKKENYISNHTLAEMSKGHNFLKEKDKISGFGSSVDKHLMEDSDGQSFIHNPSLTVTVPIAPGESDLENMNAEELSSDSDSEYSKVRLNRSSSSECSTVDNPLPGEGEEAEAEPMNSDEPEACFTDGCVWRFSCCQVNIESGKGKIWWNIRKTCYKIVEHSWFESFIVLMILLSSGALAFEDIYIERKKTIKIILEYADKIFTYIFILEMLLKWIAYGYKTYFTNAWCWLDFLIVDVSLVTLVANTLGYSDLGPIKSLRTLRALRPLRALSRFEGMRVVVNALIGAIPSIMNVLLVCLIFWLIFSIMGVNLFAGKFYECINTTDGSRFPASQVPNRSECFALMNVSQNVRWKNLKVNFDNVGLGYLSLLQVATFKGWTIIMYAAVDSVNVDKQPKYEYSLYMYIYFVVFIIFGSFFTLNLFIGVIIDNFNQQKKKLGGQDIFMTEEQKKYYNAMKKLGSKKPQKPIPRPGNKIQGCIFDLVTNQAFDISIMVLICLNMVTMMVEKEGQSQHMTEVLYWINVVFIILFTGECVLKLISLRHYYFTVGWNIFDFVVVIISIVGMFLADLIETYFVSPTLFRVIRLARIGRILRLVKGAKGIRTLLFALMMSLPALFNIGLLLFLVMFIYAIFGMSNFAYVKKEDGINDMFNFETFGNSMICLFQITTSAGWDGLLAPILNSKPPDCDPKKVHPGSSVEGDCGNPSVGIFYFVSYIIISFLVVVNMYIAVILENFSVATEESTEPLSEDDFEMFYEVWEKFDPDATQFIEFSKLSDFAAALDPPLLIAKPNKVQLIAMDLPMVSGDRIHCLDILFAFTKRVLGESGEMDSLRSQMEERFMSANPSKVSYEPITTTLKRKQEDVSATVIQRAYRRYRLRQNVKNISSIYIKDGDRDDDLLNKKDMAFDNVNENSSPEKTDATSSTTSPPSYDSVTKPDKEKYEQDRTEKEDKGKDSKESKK
# [5] = biological target: T2, hNav1.5; type: cell-based
# [6] = biological target: T3, hNav1.7; assay: cell-based; details: Nav1.7 Use IC50
# [7] = in vivo; details: male, CD-1, mouse, sc, 5 mg/kg, terminal exposure (peptide plasma concentration at 2 h post peptide injection), later studies, 5 mg/kg s.c.
# [8] = test system: locomotor activity in male CD-1 mice; details: 5 mg/kg
# [9] = biological target: T2, hNav1.5; assay: cell-based
# [10] = biological target: T1, hNav1.3; assay: cell-based; details: IonWorks Quattro; clamped to −110 mV, depolarized to −10 mV, 5 min after compound; n=2; read-out: IWQ Use Nav1.3
# [11] = human plasma, 37° C., incubation time 0 hr (normalisation point)
# [12] = mouse plasma, 37° C., incubation time 0 hr (normalisation point)
# [13] = in vitro; details: human, plasma
# [14] = in vitro; details: mouse, plasma
# [15] = in vivo; details: male, CD-1, mouse, sc, 5 mg/kg, terminal exposure (peptide plasma concentration at 45 min post formalin injection)
# [16] = rat plasma, 37° C.
# T1 sequence (Q9NY46 whole entry, looked up): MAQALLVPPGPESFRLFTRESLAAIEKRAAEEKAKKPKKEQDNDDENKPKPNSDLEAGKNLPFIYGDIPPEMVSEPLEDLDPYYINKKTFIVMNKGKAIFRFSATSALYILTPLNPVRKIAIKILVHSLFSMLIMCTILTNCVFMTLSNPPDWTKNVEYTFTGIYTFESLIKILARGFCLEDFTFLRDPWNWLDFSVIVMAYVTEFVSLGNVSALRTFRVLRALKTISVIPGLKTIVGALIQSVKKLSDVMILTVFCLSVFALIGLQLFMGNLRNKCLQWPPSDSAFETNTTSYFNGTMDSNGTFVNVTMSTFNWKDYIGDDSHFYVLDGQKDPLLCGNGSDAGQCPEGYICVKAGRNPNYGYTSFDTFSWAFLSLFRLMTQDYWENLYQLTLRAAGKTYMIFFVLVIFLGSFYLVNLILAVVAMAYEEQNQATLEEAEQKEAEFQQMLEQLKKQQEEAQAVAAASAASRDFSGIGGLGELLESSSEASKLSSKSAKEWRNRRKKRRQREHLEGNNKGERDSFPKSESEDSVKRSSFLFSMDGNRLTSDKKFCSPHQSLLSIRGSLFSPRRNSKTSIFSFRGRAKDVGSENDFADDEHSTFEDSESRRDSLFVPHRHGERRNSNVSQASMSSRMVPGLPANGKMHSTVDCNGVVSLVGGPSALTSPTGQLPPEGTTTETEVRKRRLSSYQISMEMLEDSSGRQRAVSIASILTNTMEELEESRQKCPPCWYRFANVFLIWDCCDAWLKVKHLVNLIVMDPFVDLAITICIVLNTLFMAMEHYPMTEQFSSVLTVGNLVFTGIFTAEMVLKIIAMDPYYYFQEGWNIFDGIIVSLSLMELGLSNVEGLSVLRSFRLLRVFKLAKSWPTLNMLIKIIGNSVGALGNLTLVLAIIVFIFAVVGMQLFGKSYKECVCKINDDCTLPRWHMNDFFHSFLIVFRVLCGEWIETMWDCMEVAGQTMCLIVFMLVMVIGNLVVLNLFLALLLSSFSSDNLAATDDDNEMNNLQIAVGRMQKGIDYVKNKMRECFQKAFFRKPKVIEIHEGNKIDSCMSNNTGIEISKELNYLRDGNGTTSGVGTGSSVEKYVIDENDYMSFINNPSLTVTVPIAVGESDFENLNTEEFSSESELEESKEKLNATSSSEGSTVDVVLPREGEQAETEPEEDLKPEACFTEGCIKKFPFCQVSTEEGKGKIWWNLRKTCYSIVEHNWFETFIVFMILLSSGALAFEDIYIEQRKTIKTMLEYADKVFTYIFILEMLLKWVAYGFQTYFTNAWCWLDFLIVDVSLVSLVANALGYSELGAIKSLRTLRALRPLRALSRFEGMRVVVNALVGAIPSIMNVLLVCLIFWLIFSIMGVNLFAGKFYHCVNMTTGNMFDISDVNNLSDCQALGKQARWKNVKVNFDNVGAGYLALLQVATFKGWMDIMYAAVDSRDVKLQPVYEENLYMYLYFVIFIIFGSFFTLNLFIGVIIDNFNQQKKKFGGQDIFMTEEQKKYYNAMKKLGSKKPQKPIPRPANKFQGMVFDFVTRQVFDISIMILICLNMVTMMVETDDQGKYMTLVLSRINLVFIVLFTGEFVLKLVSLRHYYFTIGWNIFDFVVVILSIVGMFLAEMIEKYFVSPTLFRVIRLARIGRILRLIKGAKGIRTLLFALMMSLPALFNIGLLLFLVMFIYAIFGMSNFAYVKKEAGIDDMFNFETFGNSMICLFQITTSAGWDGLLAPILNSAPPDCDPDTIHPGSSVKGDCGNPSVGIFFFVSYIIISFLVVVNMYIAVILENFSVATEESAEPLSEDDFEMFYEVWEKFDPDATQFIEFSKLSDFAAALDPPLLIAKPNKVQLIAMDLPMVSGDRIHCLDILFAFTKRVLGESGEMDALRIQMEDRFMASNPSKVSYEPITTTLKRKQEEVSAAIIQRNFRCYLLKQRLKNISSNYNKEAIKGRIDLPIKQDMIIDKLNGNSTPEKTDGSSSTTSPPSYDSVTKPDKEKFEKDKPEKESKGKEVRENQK
molecule,measurement,setting,value
"[Phe6,Atz(2 kDa EtO-PEG*-{[Phe6,Atz13*]GpTx-1(1-34)}) 13]GpTx-1(1-34) [Homodimeric Conjugate 1]",IC50,[1]; read-out: Nav1.3 Use IC50,8 nM
same,IC50,[2],254 nM
same,IC50,[3],1430 nM
same,inhibition of the Nav1.7 current,[4],complete inhibition
same,inhibition of the Nav1.5 current,[5],complete inhibition
same,IC50,[5]; read-out: IC50 against hNav1.5 sodium channels,75.5 nM
same,IC50,"[5]; read-out: IC50 against hNav1.5 sodium channels, partially inactivated",57 nM
"CC[C@H](C)[C@@H]1NC(=O)[C@@H]2CSSC[C@@H]3NC(=O)[C@H](C(C)C)NC(=O)[C@H](CC(C)C)NC(=O)[C@H](CC(N)=O)NC(=O)[C@@H]4CCCN4C(=O)[C@H](CCCNC(=N)N)NC(=O)[C@H](CSSC[C@H](NC(=O)[C@@H](N)CC(=O)O)C(=O)N[C@@H](CC(C)C)C(=O)NCC(=O)N[C@@H](Cc4ccccc4)C(=O)N[C@@H](CCSC)C(=O)N[C@@H](CCCNC(=N)N)C(=O)N[C@@H](CCCCN)C(=O)N2)NC(=O)[C@H](CSSC[C@@H](C(=O)N[C@@H](CCCCN)C(=O)N[C@@H](Cc2ccc(O)cc2)C(=O)N[C@H](C(=O)N[C@@H](Cc2ccccc2)C(N)=O)C(C)C)NC(=O)[C@H](Cc2c[nH]c4ccccc24)NC(=O)[C@H](CCC(=O)O)NC(=O)[C@H](Cc2cnc[nH]2)NC(=O)[C@H]([C@@H](C)O)NC(=O)[C@H](CCCNC(=N)N)NC(=O)[C@H](CO)NC3=O)NC(=O)[C@H](CCCCN)NC(=O)[C@H](CC(=O)O)NC(=O)[C@H](CC(N)=O)NC(=O)[C@H](CC(=O)O)NC(=O)[C@@H]2CCCN2C1=O [[Glu28]GpTx-1(1-34)] (H-DCLGFMRKCIPDNDKCCRPNLVCSRTHEWCKYVF-NH2; disulfide 2-17, 9-23, 16-30)",IC50,[6],26 nM
same,level at time molar at 2 h,[7],1280 ± 403 nM
"CC[C@@H]1NC(=O)[C@H](CC(=O)O)NC(=O)[C@@H]2CCCN2C(=O)[C@H](CCC(=O)O)NC(=O)[C@@H]2CSSC[C@@H]3NC(=O)[C@H](C(C)C)NC(=O)[C@H](CC(C)C)NC(=O)[C@H](CC(N)=O)NC(=O)[C@@H]4CCCN4C(=O)[C@H](CCCNC(=N)N)NC(=O)[C@H](CSSC[C@H](NC(=O)[C@@H](N)CC(=O)O)C(=O)N[C@@H](CC(C)C)C(=O)NCC(=O)N[C@@H](C)C(=O)N[C@@H](Cc4ccccc4)C(=O)N[C@@H](CCCNC(=N)N)C(=O)N[C@@H](CCCCN)C(=O)N2)NC(=O)[C@H](CSSC[C@@H](C(=O)N[C@@H](CCCCN)C(=O)N[C@@H](Cc2ccc(O)cc2)C(=O)N[C@H](C(=O)N[C@@H](Cc2ccccc2)C(N)=O)C(C)C)NC(=O)[C@H](Cc2c[nH]c4ccccc24)NC(=O)[C@H](CCCNC(=N)N)NC(=O)[C@H](Cc2c[nH]cn2)NC(=O)[C@H](CC(C)C)NC(=O)[C@H](CCCNC(=N)N)NC(=O)[C@H](CO)NC3=O)NC(=O)[C@H](CCCCN)NC(=O)[C@H](CC(=O)O)NC1=O (H-DCLGAFRKCEPD[Abu]DKCCRPNLVCSRLHRWCKYVF-NH2; disulfide 2-17, 9-23, 16-30)",behavior of animals in the open field analysis,[8],moribund behavior or lethality
same,level at time molar at 2 h,[7],1720 ± 313 nM
CC[C@H](C)[C@@H]1NC(=O)[C@@H]2CSSC[C@@H]3NC(=O)[C@H](C(C)C)NC(=O)[C@H](CC(C)C)NC(=O)[C@H](CC(N)=O)NC(=O)[C@@H]4CCCN4C(=O)[C@H](CCCNC(=N)N)NC(=O)[C@H](CSSC[C@H](NC(=O)[C@H](CC(=O)O)NC(C)=O)C(=O)N[C@@H](CC(C)C)C(=O)NCC(=O)N[C@@H](Cc4ccccc4)C(=O)N[C@@H](CCSC)C(=O)N[C@@H](CCCNC(=N)N)C(=O)N[C@@H](CCCCN)C(=O)N2)NC(=O)[C@H](CSSC[C@@H](C(=O)N[C@@H](CCCCN)C(=O)N[C@@H](Cc2ccc(O)cc2)C(=O)N[C@H](C(=O)N[C@@H](Cc2ccccc2)C(N)=O)C(C)C)NC(=O)[C@H](Cc2c[nH]c4ccccc24)NC(=O)[C@H](CCCCN)NC(=O)[C@H](Cc2cnc[nH]2)NC(=O)[C@H]([C@@H](C)O)NC(=O)[C@H](CCCNC(=N)N)NC(=O)[C@H](CO)NC3=O)NC(=O)[C@H](CCCCN)NC(=O)[C@H](CC(=O)O)NC(=O)[C@H](CC(N)=O)NC(=O)[C@H](CC(=O)O)NC(=O)[C@@H]2CCCN2C1=O [SEQ ID NO: 132],IC50,[9]; IWQ Use Nav1.5,12700 nM
same,IC50,[10],220 nM
same,IC50,[1]; Nav1.3 Use IC50,84 nM
same,% peptide remaining,[11],100%
same,% peptide remaining,[12],100%
same,remaining at 2 h,[13],100%
same,remaining at 4 h,[13],104%
same,remaining at 8 h,[13],101%
same,remaining at 24 h,[13],97%
same,remaining at 2 h,[14],105%
same,remaining at 4 h,[14],103%
same,remaining at 8 h,[14],103%
same,remaining at 24 h,[14],106%
"CC[C@H](C)[C@@H]1NC(=O)[C@@H]2CSSC[C@@H]3NC(=O)[C@H](C(C)C)NC(=O)[C@H](CC(C)C)NC(=O)[C@H](CC(N)=O)NC(=O)[C@@H]4CCCN4C(=O)[C@H](CCCNC(=N)N)NC(=O)[C@H](CSSC[C@H](NC(=O)[C@@H](N)CC(=O)O)C(=O)N[C@@H](CC(C)C)C(=O)NCC(=O)N[C@@H](Cc4ccccc4)C(=O)N[C@@H](CCSC)C(=O)N[C@@H](CCCNC(=N)N)C(=O)N[C@@H](CCCCN)C(=O)N2)NC(=O)[C@H](CSSC[C@@H](C(=O)N[C@@H](CCCCN)C(=O)N[C@@H](Cc2ccc(O)cc2)C(=O)N[C@H](C(=O)N[C@@H](Cc2ccccc2)C(N)=O)C(C)C)NC(=O)[C@H](CCC(=O)O)NC(=O)[C@H](CCCCN)NC(=O)[C@H](Cc2cnc[nH]2)NC(=O)[C@H]([C@@H](C)O)NC(=O)[C@H](CCCNC(=N)N)NC(=O)[C@H](CO)NC3=O)NC(=O)[C@H](CCCCN)NC(=O)[C@H](CC(=O)O)NC(=O)[C@H](CC(N)=O)NC(=O)[C@H](CC(=O)O)NC(=O)[C@@H]2CCCN2C1=O [[Glu29]GpTx-1(1-34)] (H-DCLGFMRKCIPDNDKCCRPNLVCSRTHKECKYVF-NH2; disulfide 2-17, 9-23, 16-30)",level at time molar at […],[15],502 ± 271 nM
same,level at time molar at 2 h,[7],771 ± 272 nM
"CC[C@H](C)[C@@H]1NC(=O)[C@@H]2CSSC[C@@H]3NC(=O)[C@H](C(C)C)NC(=O)[C@H](CC(C)C)NC(=O)[C@H](CC(N)=O)NC(=O)[C@@H]4CCCN4C(=O)[C@H](CCCNC(=N)N)NC(=O)[C@H](CSSC[C@H](N)C(=O)N[C@@H](CC(C)C)C(=O)NCC(=O)N[C@@H](Cc4ccccc4)C(=O)N[C@@H](CCSC)C(=O)N[C@@H](CCCNC(=N)N)C(=O)N[C@@H](CCCCN)C(=O)N2)NC(=O)[C@H](CSSC[C@@H](C(=O)N[C@@H](CCCCN)C(=O)N[C@@H](Cc2ccc(O)cc2)C(=O)N[C@H](C(=O)N[C@@H](Cc2ccccc2)C(N)=O)C(C)C)NC(=O)[C@H](Cc2c[nH]c4ccccc24)NC(=O)[C@H](CCCCN)NC(=O)[C@H](Cc2cnc[nH]2)NC(=O)[C@H]([C@@H](C)O)NC(=O)[C@H](CCCNC(=N)N)NC(=O)[C@H](CO)NC3=O)NC(=O)[C@H](CCCCN)NC(=O)[C@H](CC(=O)O)NC(=O)[C@H](CC(N)=O)NC(=O)[C@H](CC(=O)O)NC(=O)[C@@H]2CCCN2C1=O [SEQ ID NO: 108] (H-CLGFMRKCIPDNDKCCRPNLVCSRTHKWCKYVF-NH2; disulfide 1-16, 8-22, 15-29)",IC50,"[9]; IonWorks Quattro, clamped to −110 mV, depolarized to −10 mV, 5 min after compound, n=2, read-out: IWQ Use Nav1.5",8220 nM
same,IC50,[10],50 nM
same,IC50,[6],7 nM
same,IC50,[1]; Nav1.3 Use IC50,15 nM
same,% peptide remaining,[11],100%
same,% peptide remaining,[12],100%
same,remaining at 2 h,[13],107%
same,remaining at 4 h,[13],92%
same,remaining at 8 h,[13],91%
same,remaining at 24 h,[13],82%
same,remaining at 2 h,[14],100%
same,remaining at 4 h,[14],95%
same,remaining at 8 h,[14],87%
same,remaining at 24 h,[14],81%
CSCC[C@@H]1NC(=O)[C@H](Cc2ccccc2)NC(=O)CNC(=O)[C@H](CC(C)C)NC(=O)[C@@H](NC(=O)[C@@H](N)CC(=O)O)CSSC[C@@H]2NC(=O)[C@@H]3CSSC[C@@H](C(=O)N[C@@H](CCCCN)C(=O)N[C@@H](Cc4ccc(O)cc4)C(=O)N[C@H](C(=O)N[C@@H](Cc4ccccc4)C(N)=O)C(C)C)NC(=O)[C@H](Cc4c[nH]c5ccccc45)NC(=O)[C@H](CCCCN)NC(=O)[C@H](Cc4c[nH]cn4)NC(=O)[C@H]([C@@H](C)O)NC(=O)[C@H](CCCNC(=N)N)NC(=O)[C@H](CO)NC(=O)[C@H](CSSC[C@H](NC(=O)[C@H](CCCCN)NC(=O)[C@H](CCCNC(=N)N)NC1=O)C(=O)N[C@@H](Cc1cccc4ccccc14)C(=O)N1CCC[C@H]1C(=O)N[C@@H](CC(=O)O)C(=O)N[C@@H](CC(N)=O)C(=O)N[C@@H](CC(=O)O)C(=O)N[C@@H](CCCCN)C(=O)N3)NC(=O)[C@H](C(C)C)NC(=O)[C@H](CC(C)C)NC(=O)[C@H](CC(N)=O)NC(=O)[C@@H]1CCCN1C(=O)[C@H](CCCNC(=N)N)NC2=O [[1-Nal10]GpTx-1(1-34)],IC50,[6],5 nM
same,IC50,[1]; Nav1.3 Use IC50,39 nM
same,IC50,[3],12900 nM
same,% peptide remaining,[16]; incubation time 0 hr,100%
same,% peptide remaining,[16]; incubation time 2 hr,104%
same,% peptide remaining,[16]; incubation time 4 hr,106%
same,% peptide remaining,[16]; incubation time 6 hr,108%
same,% peptide remaining,[16]; incubation time 8 hr,112%
same,% peptide remaining,[16]; incubation time 24 hr,89%
